Data published in US9994628B2, “Peptides and combination of peptides for use in immunotherapy against various tumors” (IMMATICS BIOTECHNOLOGIES GMBH, priority 2015, dated 2018).

Columns and labels:
CD8+ T cells = test: In vitro T-cell priming assay with aAPCs loaded with peptide/MHC complexes and anti-CD28 antibody, pMHC multimer readout; format: cell-based, human; conditions: for Wells positive [%]: percentage of positive wells among evaluable, HLA-A*02 restricted peptides; for donors (in vitro immunogenicity): positive donors; for donors (in vitro immunogenicity) / wells (in vitro immunogenicity): healthy HLA-A*02 donors, three stimulation cycles; for wells (in vitro immunogenicity): positive wells
Excerpt: In order to obtain information regarding the immunogenicity of the TUMAPs of the present invention, the inventors performed investigations using an in vitro T-cell priming assay based on repeated stimulations of CD8+ T cells with artificial antigen presenting cells (aAPCs) loaded with peptide/MHC complexes and anti-CD28 antibody.
In order to perform in vitro stimulations by artificial antigen presenting cells loaded with peptide-MHC complex (pMHC) and anti-CD28 antibody, the inventors first isolated CD8+ T cells from fresh HLA-A*02 leukapheresis products via positive selection using CD8 microbeads (Miltenyi Biotec, Bergisch-Gladbach, Germany) of healthy donors obtained from the University clinics Mannheim, Germany, after informed consent. PBMCs and isolated CD8+ lymphocytes were incubated in T-cell medium (TCM) until use consisting of RPMI-Glutamax (Invitrogen, Karlsruhe, Germany) supplemented with 10% heat inactivated human AB serum (PAN-Biotech, Aidenbach, Germany), 100 U/ml Penicillin/100 μg/ml Streptomycin (Cambrex, Cologne, Germany), 1 mM sodium pyruvate (CC Pro, Oberdorla, Germany), 20 μg/ml Gentamycin (Cambrex). 2.5 ng/ml IL-7 (PromoCell, Heidelberg, Germany) and 10 U/ml IL-2 (Novartis Pharma, Nümberg, Germany) were also added to the TCM at this step. Generation of pMHC/anti-CD28 coated beads, T-cell stimulations and readout was performed in a highly defined in vitro system using four different pMHC molecules per stimulation condition and 8 different pMHC molecules per readout condition.
The purified co-stimulatory mouse IgG2a anti human CD28 Ab 9.3 (Jung et al., 1987) was chemically biotinylated using Sulfo-N-hydroxysuccinimidobiotin as recommended by the manufacturer (Perbio, Bonn, Germany). Beads used were 5.6 μm diameter streptavidin coated polystyrene particles (Bangs Laboratories, Illinois, USA).
pMHC used for positive and negative control stimulations were A*0201/MLA-001 (peptide […] (SEQ ID NO. 289) from modified Melan-A/MART-1) and A*0201/DDX5-001 ([…] from DDX5, SEQ ID NO. 290), respectively.
800.000 beads/200 μl were coated in 96-well plates in the presence of 4×12.5 ng different biotin-pMHC, washed and 600 ng biotin anti-CD28 were added subsequently in a volume of 200 μl. Stimulations were initiated in 96-well plates by co-incubating […] CD8+ T cells with 2×10^5 washed coated beads in 200 μl TCM supplemented with 5 ng/ml IL-12 (PromoCell) for 3 days at 37° C. Half of the medium was then exchanged by fresh TCM supplemented with 80 U/ml IL-2 and incubating was continued for 4 days at 37° C. This stimulation cycle was performed for a total of three times. For the pMHC multimer readout using 8 different pMHC molecules per condition, a two-dimensional combinatorial coding approach was used as previously described (Andersen et al., 2012) with minor modifications encompassing coupling to 5 different fluorochromes. Finally, multimeric analyses were performed by staining the cells with Live/dead near IR dye (Invitrogen, Karlsruhe, Germany), CD8-FITC antibody clone SK1 (BD, Heidelberg, Germany) and fluorescent pMHC multimers. For analysis, a BD LSRII SORP cytometer equipped with appropriate lasers and filters was used. Peptide specific cells were calculated as percentage of total CD8+ cells. Evaluation of multimeric analysis was done using the FlowJo software (Tree Star, Oregon, USA). In vitro priming of specific multimer+ CD8+ lymphocytes was detected by comparing to negative control stimulations.

HLA-A*02:01 = HLA-A*02:01 (Homo sapiens, UniProt P04439, D140Y/D185E/D98H/E176V/E277Q/G131W/G231S/I119V/I121R/I166T/I218V/L300P/L318F/N151K/N90K/P208A/P217A/Q86G/Q94H/R138H/R169H/T345S); test: MHC binding assay: UV-ligand exchange and β2m ELISA (peptide exchange yield, Table 7); conditions: binding of HLA-class I restricted peptides to HLA-A*02:01, UV-ligand exchange
Summary of the method: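 Peptide-MHC complexes made by UV-mediated exchange of a cleavable ligand for test peptide; exchange yield measured by ELISA detecting β2m of stabilized complexes captured on streptavidin, using refolded HLA-A*02:01/MLA-001 monomer standards (15-500 ng/ml). Samples diluted 100-fold; HRP anti-β2m, TMB, absorbance 450 nm.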

Peptide exchange (MHC class I binding score, peptide exchange yield) (HLA-A*02:01) | Substance | Wells positive [%] (CD8+ T cells) | donors (in vitro immunogenicity) (CD8+ T cells) | wells (in vitro immunogenicity) (CD8+ T cells)
+++ (≥50% = +++) | 34 (TLNTLDINL; listed as Homo sapiens) [compound 34] | ++++ (>=70% = ++++) | – | –
+++ (≥50% = +++) | 39 (YLEDGFAYV; listed as Homo sapiens) [compound 39] | ++++ (>=70% = ++++) | – | –
– | 287 (KIQEILTQV; listed as Homo sapiens) [compound 287] | – | +++ (50%-69% = +++) | + (<20% = +)
– | 288 (SLYKGLLSV; listed as Homo sapiens) [compound 288] | – | ++++ (>=70% = ++++) | ++ (21%-49% = ++)
